Converted amounts (≈) assume the structure as drawn.
Legend:
[1] = Solubility determinations in SIF buffers FaSSIF, FeSSIF, FaSSGF (Example 8, Experiment 5)
Protocol: The temperature was maintained at 37° C. for 24 h. […] The suspensions were sampled at the relevant time points and centrifuged. The centrifuged pellets, obtained at the time points were analysed by XRPD as a wet pellet and dried, for evidence of form change.
The temperature was maintained at 37° C. for 24 h.
The suspension was sampled at the relevant time points and centrifuged. […] The centrifuged pellets, obtained at the time points were analyzed by XRPD as a wet pellet and dried, for evidence of form change.

[2] = Suspension equilibration of the monofumarate salt at 20° C. and 40° C. (Experiment References 6, 7, 8); type: physicochemical; settings: for Observations (t = 0 @ 20° C.) / Observations (t = 1 d @ 20° C.) / Observations t = 7 d @ 20° C.: suspension equilibration at 20° C.; for Observations (t = 0 @ 40° C.) / Observations (t = 1 d @ 40° C.) / Observations t = 7 d @ 40° C.: suspension equilibration at 40° C.
Protocol: Separate portions of the tabernanthalog monofumarate salt (Sample Reference 1, Pattern #1, ca 50 mg, 1.0 wt.) were charged to separate vessels. The appropriate solvents (e.g. 250 μl, 5.0 vol), were charged to the vessels and the mixtures were stirred for several days at their relevant temperatures e.g. 20 and 40° C. After this time the products were cooled, isolated by centrifugation, analyzed as wet pellet (suffix-1) by XRPD and dried under reduced pressure at 40° C. (suffix-2) and re-analyzed by XRPD and companion analyses for evidence of alternative crystalline forms.
The tabernanthalog monofumarate salt (Sample Reference 1, Pattern #1) was subjected to this technique at ambient temperature (20° C., Table 35) and at elevated temperature (40° C., Table 36), in a diverse range of solvents. The primary aim is to identify a stable, anhydrous monotropic form that is suitable for future development.
The tabernanthalog monofumarate salt (Sample Reference 1, Pattern #1, 1.0 g, 1 wt) was suspended in water (5 ml, 5 vol) at 20° C. for 10 days (the suspension was sub-sampled to monitor the conversion to Pattern #6a by XRPD). The suspension was filtered through a sintered funnel and the filter cake was dried under nitrogen flow for ca. 24 h. Sample 8-A4 (Experiment Reference 8-Sample Reference A4) was collected as a brown solid (560.6 mg, 56% yield uncorr.). Yield was not corrected for impurities, solvents, etc.

[3] = 37 °C, pH 1.6, fassgf or other biorelevant, thermodynamic from solid
[4] = 37 °C, pH 5, fessif, thermodynamic from solid
[5] = 37 °C, pH 6.5, fassif, thermodynamic from solid

## C/C=C/C=C/C(=O)O.COc1ccc2c3c([nH]c2c1)CCN(C)CC3 [Sample 5-L10]
[1]; tabernanthalog sorbate salt, t = 24 h in FaSSGF, 37° C.
  Tabernanthalog RRT = 1.00 (trended HPLC data, chemical purity): 99.33

## COc1ccc2c3c([nH]c2c1)CCN(C)CC3 [Tabernanthalog• Sorbate]
[1]; [3]
  solubility at 1 h: 21.9 mg/mL (≈ 95 mM)
  solubility at 3 h: 29.8 mg/mL (≈ 130 mM)
  solubility at 6 h: 30.3 mg/mL (≈ 131 mM)
  solubility at 24 h: 29.9 mg/mL (≈ 130 mM)
[1]; [4]
  solubility at 1 h: 27.2 mg/mL (≈ 118 mM)
  solubility at 3 h: > 30 mg/mL
  solubility at 6 h: > 30 mg/mL
[1]; [5]
  solubility at 1 h: > 30 mg/mL
  solubility at 3 h: > 30 mg/mL
  solubility at 6 h: > 30 mg/mL
[1]; FaSSGF (pH 1.6), t = 1 h @37° C., suspended solid, dried pellet
  XRPD (dried): Sorbic acid
[1]; FaSSGF (pH 1.6), t = 1 h @37° C., suspended solid, wet pellet
  XRPD (wet): Sorbic acid

## COc1ccc2c3c([nH]c2c1)CCN(C)CC3.O=C(O)/C=C/C(=O)O [Tabernanthalog•Monofumarate (CAT8931)]
[2]; 6-A, Acetone
  Observations (t = 0 @ 20° C.): Suspension
  Observations (t = 1 d @ 20° C.): Suspension
  Observations t = 7 d @ 20° C.: Suspension
[2]; 6-B, Acetonitrile
  Observations (t = 0 @ 20° C.): Suspension
  Observations (t = 1 d @ 20° C.): Suspension
  Observations t = 7 d @ 20° C.: Suspension
[2]; 6-C, tert-Butylmethyl ether
  Observations (t = 0 @ 20° C.): Suspension
  Observations (t = 1 d @ 20° C.): Suspension
  Observations t = 7 d @ 20° C.: Suspension
[2]; 6-D, Chlorobenzene
  Observations (t = 0 @ 20° C.): Suspension
  Observations (t = 1 d @ 20° C.): Suspension
  Observations t = 7 d @ 20° C.: Suspension
[2]; 6-E, Dichloromethane
  Observations (t = 0 @ 20° C.): Suspension
  Observations (t = 1 d @ 20° C.): Suspension
  Observations t = 7 d @ 20° C.: Suspension
[2]; 6-F, Ethanol
  Observations (t = 0 @ 20° C.): Suspension
  Observations (t = 1 d @ 20° C.): Suspension
  Observations t = 7 d @ 20° C.: Suspension
[2]; 6-G, Ethyl acetate
  Observations (t = 0 @ 20° C.): Suspension
  Observations (t = 1 d @ 20° C.): Suspension
  Observations t = 7 d @ 20° C.: Suspension
[2]; 6-H, Ethyl formate
  Observations (t = 0 @ 20° C.): Suspension
  Observations (t = 1 d @ 20° C.): Suspension
  Observations t = 7 d @ 20° C.: Suspension
[2]; 6-I, Heptane
  Observations (t = 0 @ 20° C.): Suspension
  Observations (t = 1 d @ 20° C.): Suspension
  Observations t = 7 d @ 20° C.: Suspension
[2]; 6-J, Isopropyl acetate
  Observations (t = 0 @ 20° C.): Suspension
  Observations (t = 1 d @ 20° C.): Suspension
  Observations t = 7 d @ 20° C.: Suspension
[2]; 6-K, Methanol
  Observations (t = 0 @ 20° C.): Suspension
  Observations (t = 1 d @ 20° C.): Suspension
  Observations t = 7 d @ 20° C.: Suspension
[2]; 6-L, Methyl acetate
  Observations (t = 0 @ 20° C.): Suspension
  Observations (t = 1 d @ 20° C.): Suspension
  Observations t = 7 d @ 20° C.: Suspension
[2]; 6-M, Methylethyl ketone
  Observations (t = 0 @ 20° C.): Suspension
  Observations (t = 1 d @ 20° C.): Suspension
  Observations t = 7 d @ 20° C.: Suspension
[2]; 6-N, 2-Methyl THF
  Observations (t = 0 @ 20° C.): Suspension
  Observations (t = 1 d @ 20° C.): Suspension
  Observations t = 7 d @ 20° C.: Suspension
[2]; 6-O, Nitromethane
  Observations (t = 0 @ 20° C.): Suspension
  Observations (t = 1 d @ 20° C.): Suspension
  Observations t = 7 d @ 20° C.: Suspension
[2]; 6-P, 2-Propanol
  Observations (t = 0 @ 20° C.): Suspension
  Observations (t = 1 d @ 20° C.): Suspension
  Observations t = 7 d @ 20° C.: Suspension
[2]; 6-Q, Tetrahydrofuran
  Observations (t = 0 @ 20° C.): Suspension
  Observations (t = 1 d @ 20° C.): Suspension
  Observations t = 7 d @ 20° C.: Suspension
[2]; 6-R, Toluene
  Observations (t = 0 @ 20° C.): Suspension
  Observations (t = 1 d @ 20° C.): Suspension
  Observations t = 7 d @ 20° C.: Suspension
[2]; 6-S, Water
  Observations (t = 0 @ 20° C.): Suspension
  Observations (t = 1 d @ 20° C.): Suspension
  Observations t = 7 d @ 20° C.: Suspension

## COc1ccc2c3c([nH]c2c1)CCN(C)CC3.O=C(O)/C=C/C(=O)O [Tabernanthalog•fumarate (CAT8931)]
[2]; 7-A, Acetone
  Observations (t = 0 @ 40° C.): Suspension
  Observations (t = 1 d @ 40° C.): Suspension
  Observations t = 7 d @ 40° C.: Suspension
[2]; 7-B, Acetonitrile
  Observations (t = 0 @ 40° C.): Suspension
  Observations (t = 1 d @ 40° C.): Suspension
  Observations t = 7 d @ 40° C.: Suspension
[2]; 7-C, tert-Butylmethyl ether
  Observations (t = 0 @ 40° C.): Suspension
  Observations t = 7 d @ 40° C.: Suspension
[2]; 7-D, Chlorobenzene
  Observations (t = 0 @ 40° C.): Suspension
  Observations (t = 1 d @ 40° C.): Suspension
  Observations t = 7 d @ 40° C.: Suspension
[2]; 7-E, Dichloromethane
  Observations (t = 0 @ 40° C.): Suspension
  Observations (t = 1 d @ 40° C.): Suspension
  Observations t = 7 d @ 40° C.: Suspension
[2]; 7-F, Ethanol
  Observations (t = 0 @ 40° C.): Suspension
  Observations (t = 1 d @ 40° C.): Suspension
  Observations t = 7 d @ 40° C.: Suspension
[2]; 7-G, Ethyl acetate
  Observations (t = 0 @ 40° C.): Suspension
  Observations (t = 1 d @ 40° C.): Suspension
  Observations t = 7 d @ 40° C.: Suspension
[2]; 7-H, Ethyl formate
  Observations (t = 0 @ 40° C.): Suspension
  Observations (t = 1 d @ 40° C.): Suspension
  Observations t = 7 d @ 40° C.: Suspension
[2]; 7-I, Heptane
  Observations (t = 0 @ 40° C.): Suspension
  Observations (t = 1 d @ 40° C.): Suspension
  Observations t = 7 d @ 40° C.: Suspension
[2]; 7-J, Isopropyl acetate
  Observations (t = 0 @ 40° C.): Suspension
  Observations (t = 1 d @ 40° C.): Suspension
  Observations t = 7 d @ 40° C.: Suspension
[2]; 7-K, Methanol
  Observations (t = 0 @ 40° C.): Suspension
  Observations t = 7 d @ 40° C.: Suspension
[2]; 7-L, Methyl acetate
  Observations (t = 0 @ 40° C.): Suspension
  Observations (t = 1 d @ 40° C.): Suspension
  Observations t = 7 d @ 40° C.: Suspension
[2]; 7-M, Methylethyl ketone
  Observations (t = 0 @ 40° C.): Suspension
  Observations (t = 1 d @ 40° C.): Suspension
  Observations t = 7 d @ 40° C.: Suspension
[2]; 7-N, 2-Methyl THF
  Observations (t = 0 @ 40° C.): Suspension
  Observations (t = 1 d @ 40° C.): Suspension
  Observations t = 7 d @ 40° C.: Suspension
[2]; 7-O, Nitromethane
  Observations (t = 0 @ 40° C.): Suspension
  Observations (t = 1 d @ 40° C.): Suspension
  Observations t = 7 d @ 40° C.: Suspension
[2]; 7-P, 2-Propanol
  Observations (t = 0 @ 40° C.): Suspension
  Observations (t = 1 d @ 40° C.): Suspension
  Observations t = 7 d @ 40° C.: Suspension
[2]; 7-Q, Tetrahydrofuran
  Observations (t = 0 @ 40° C.): Suspension
  Observations (t = 1 d @ 40° C.): Sticky Solid
  Observations t = 7 d @ 40° C.: Suspension
[2]; 7-R, Toluene
  Observations (t = 0 @ 40° C.): Suspension
  Observations (t = 1 d @ 40° C.): Suspension
  Observations t = 7 d @ 40° C.: Suspension
[2]; 7-S, Water
  Observations (t = 0 @ 40° C.): Suspension
  Observations t = 7 d @ 40° C.: Suspension
